# Reference: patent US20260001889A1, “COMPOSITIONS USEFUL FOR MODULATING SPLICING” (Skyhawk Therapeutics, Inc., priority 2022, published 2026)
# pEC50: −log10 of the molar value.
# System: ATXN3-HiBiT protein
# Experiment: ATXN3 Total Protein Assay (Kelly-ATXN3-HiBiT luminescence)
# Assay type: cell-based
# Conditions: Kelly-ATXN3-HiBiT cells, 48 h after addition of compound
# Text: Example 36: ATXN3 Total Protein Assay
# To monitor ATXN3 protein levels by luminescence, a Kelly-ATXN3-HiBiT cell line with homozygous knock-in of HiBiT at the C-terminus of the endogenous ATXN3 gene was used (knock-in of the HiBiT-tag coding sequence SEQ ID NO. 14: 5′[…]3′ into exon 11 of ATXN3-position 1114 of ATXN3 RefSeq NM_004993.6). Manipulations of the Kelly-ATXN3-HiBiT cell line that result in downregulation of the ATXN3-HiBiT protein (through modulation of ATXN3-HiBiT pre-mRNA splicing) can be followed by monitoring the luminescence signal of the HiBiT tag using the Nano Glo HiBiT Lytic Detection System (Promega, #N3050). Kelly-ATXN3-HiBiT cells were maintained in RPMI 1640 w/Glutamax (Gibco, #61870010), 10% FBS (Sigma Aldrich, #F8687), 1% Penicillin/Streptomycin (Gibco, #15140-122) at 37° C., 5% CO2. To assess HiBiT-luminescence signal upon compound treatment, 2000 Kelly-ATXN3-HiBiT cells were seeded per well in 384 plate format. Compounds were added 24 h after seeding. ATXN3-HiBiT-luminescence signal was read out 48 h after addition of the compound using the Nano Glo HiBiT Lytic Detection System (Promega, #N3050) according to the manufacturer's instructions. To control for cell viability, an identically prepared sister plate was read out with the CellTiter-Glo® 2.0 Assay (Promega, #G9243) according to the manufacturer's instructions. Fold changes of ATXN3-HiBiT-luminescence and of CellTiter-Glo viability signals were calculated relative to a DMSO control condition.
row,Compound,pEC50
1,"Cc1c(CC(N)CC2(F)CC2)oc2c(NCc3cccs3)cc(Cl)nc12 (centres unmarked) [Compound 67, 2-[2-amino-3-(1-fluorocyclopropyl)propyl]-5-chloro-3-methyl-7-thenylamino-1-oxa-4-azaindene]",6.30 to 7.00
2,"Cc1c(C[C@@H](N)CC2(F)CC2)oc2c(NCc3cccs3)cc(Cl)nc12 [Compound 68, 2-[(R)-2-amino-3-(1-fluorocyclopropyl)propyl]-5-chloro-3-methyl-7-thenylamino-1-oxa-4-azaindene]",5.30 to 6.30
3,"Cc1c(C[C@H](N)CC2(F)CC2)oc2c(NCc3cccs3)cc(Cl)nc12 [Compound 69, 2-[(S)-2-amino-3-(1-fluorocyclopropyl)propyl]-5-chloro-3-methyl-7-thenylamino-1-oxa-4-azaindene]",7.00 to 11.00
4,"Cc1c(CC(N)CC2COC2)oc2c(NCc3cccs3)cc(Cl)nc12 (centres unmarked) [Compound 70, 2-[2-amino-3-(3-oxetanyl)propyl]-5-chloro-3-methyl-7-thenylamino-1-oxa-4-azaindene]",4.40 to 5.00
5,"Cc1c(CC(N)CC2(F)COC2)oc2c(NCc3cccs3)cc(Cl)nc12 (centres unmarked) [Compound 73, 2-[2-amino-3-(3-fluoro-3-oxetanyl)propyl]-5-chloro-3-methyl-7-thenylamino-1-oxa-4-azaindene]",4.40 to 5.00
6,"N[C@@H](Cc1oc2c(NCc3cccs3)cc(Cl)nc2c1Br)CC1(F)CC1 [Compound 86, 2-[(S)-2-amino-3-(1-fluorocyclopropyl)propyl]-3-bromo-5-chloro-7-thenylamino-1-oxa-4-azaindene]",5.30 to 6.30
7,"N[C@H](Cc1oc2c(NCc3cccs3)cc(Cl)nc2c1Br)CC1(F)CC1 [Compound 87, 2-[(R)-2-amino-3-(1-fluorocyclopropyl)propyl]-3-bromo-5-chloro-7-thenylamino-1-oxa-4-azaindene]",6.30 to 7.00
8,"COC1([C@H](N)Cc2oc3c(NCc4cccs4)cc(Cl)nc3c2Br)CC1 [Compound 144, 2-[(R)-2-amino-2-(1-methoxycyclopropyl)ethyl]-3-bromo-5-chloro-7-thenylamino-1-oxa-4-azaindene]",4.40 to 5.00
9,"N[C@@H](CCOC(F)(F)F)Cc1oc2c(NCc3cccs3)cc(Cl)nc2c1Br [Compound 146, 2-[(S)-2-amino-4-trifluoromethoxybutyl]-3-bromo-5-chloro-7-thenylamino-1-oxa-4-azaindene]",7.00 to 11.00
10,"COCC[C@H](N)Cc1oc2c(NCc3cccs3)cc(Cl)nc2c1Br [Compound 147, 2-[(S)-2-amino-4-methoxybutyl]-3-bromo-5-chloro-7-thenylamino-1-oxa-4-azaindene]",7.00 to 11.00
11,"N#CC[C@H](N)Cc1oc2c(NCc3cccs3)cc(Cl)nc2c1Br [Compound 155, (S)-3-amino-4-(3-bromo-5-chloro-7-thenylamino-1-oxa-4-aza-2-indenyl)butyronitrile]",5.30 to 6.30
12,"N[C@@H](COCC(F)F)Cc1oc2c(NCc3cccs3)cc(Cl)nc2c1Br [Compound 182, 2-[(R)-2-amino-3-(2,2-difluoroethoxy)propyl]-3-bromo-5-chloro-7-thenylamino-1-oxa-4-azaindene]",7.00 to 11.00
13,"N[C@H](Cc1oc2c(NCc3cccs3)cc(Cl)nc2c1Br)C[C@@H]1CC1(F)F [Compound 183, 2-{(S)-3-[(R)-2,2-difluorocyclopropyl]-2-aminopropyl}-3-bromo-5-chloro-7-thenylamino-1-oxa-4-azaindene]",6.30 to 7.00
14,"N[C@H](Cc1oc2c(NCc3cccs3)cc(Cl)nc2c1Br)C[C@H]1CC1(F)F [Compound 184, 2-{(S)-3-[(S)-2,2-difluorocyclopropyl]-2-aminopropyl}-3-bromo-5-chloro-7-thenylamino-1-oxa-4-azaindene]",6.30 to 7.00
15,CC(=O)NC[C@H](N)Cc1oc2c(NCc3cccs3)cc(Cl)nc2c1Br [Compound 219],7.00 to 11.00
16,"C[C@H](N)C(F)(F)c1oc2c(NCc3nccs3)cc(Cl)nc2c1Br [Compound 223, 2-[(S)-2-amino-1,1-difluoropropyl]-3-bromo-5-chloro-7-{[(1,3-thiazol-2-yl)methyl]amino}-1-oxa-4-azaindene]",6.30 to 7.00
17,"N[C@@H](CO)C(F)(F)c1oc2c(NCc3nccs3)cc(Cl)nc2c1Br [Compound 224, (S)-2-amino-3-(3-bromo-5-chloro-7-{[(1,3-thiazol-2-yl)methyl]amino}-1-oxa-4-aza-2-indenyl)-3,3-difluoro-1-propanol]",5.30 to 6.30
18,"[2H][C@@](C)(N)Cc1oc2c(NCc3cccs3)cc(Cl)nc2c1Br [Compound 229, 2-[(S)-2-amino(2-2H)propyl]-3-bromo-5-chloro-7-thenylamino-1-oxa-4-azaindene]",7.00 to 11.00

row,Compound,pEC50
1,"[2H]C([2H])([2H])C(N)Cc1oc2c(NCc3cccs3)cc(Cl)nc2c1Br (centres unmarked) [Compound 230, 2-[2-amino(3,3,3-^2H3)propyl]-3-bromo-5-chloro-7-thenylamino-1-oxa-4-azaindene]",7.00 to 11.00
2,"[2H]C([2H])([2H])[C@H](N)Cc1oc2c(NCc3cccs3)cc(Cl)nc2c1Br [Compound 231, 2-[(S)-2-amino(3,3,3-2H3)propyl]-3-bromo-5-chloro-7-thenylamino-1-oxa-4-azaindene]",7.00 to 11.00
3,"[2H]C([2H])([2H])[C@@H](N)Cc1oc2c(NCc3cccs3)cc(Cl)nc2c1Br [Compound 232, 2-[(R)-2-amino(3,3,3-^2H3)propyl]-3-bromo-5-chloro-7-thenylamino-1-oxa-4-azaindene]",6.30 to 7.00
4,"[2H]C([2H])([2H])OC[C@H](N)Cc1oc2c(NCc3cccs3)cc(Cl)nc2c1C#C [Compound 233, 2-[(R)-2-amino-3-(2H3)methoxypropyl]-5-chloro-3-ethynyl-7-thenylamino-1-oxa-4-azaindene]",7.00 to 11.00
5,"[2H]C([2H])(Nc1cc(Cl)nc2c(Br)c(C[C@]([2H])(C)N)oc12)c1cccs1 [Compound 234, 2-[(S)-2-amino(2-2H)propyl]-3-bromo-5-chloro-7-{[(2-thienyl)(^2H2)methyl]amino}-1-oxa-4-azaindene]",7.00 to 11.00
6,"N#CC[C@H](N)Cc1oc2c(NCc3ccco3)cc(Cl)nc2c1Br [Compound 235, (S)-3-amino-4-[3-bromo-5-chloro-7-(furfurylamino)-1-oxa-4-aza-2-indenyl]butyronitrile]",5.30 to 6.30
7,"C#Cc1c(C[C@@H](N)COC2CC2)oc2c(NCc3cccs3)cc(Cl)nc12 [Compound 244, 2-[(R)-2-amino-3-cyclopropoxypropyl]-5-chloro-3-ethynyl-7-thenylamino-1-oxa-4-azaindene]",7.00 to 11.00
8,"[2H]C([2H])(Nc1cc(Cl)nc2c(Br)c(C[C@@H](N)COC(F)(F)F)oc12)c1cccs1 [Compound 246, 2-[(R)-2-amino-3-trifluoromethoxypropyl]-3-bromo-5-chloro-7-{[(2-thienyl)(^2H2)methyl]amino}-1-oxa-4-azaindene]",6.30 to 7.00
9,"C#Cc1c(C[C@@H](N)CO)oc2c(NCc3cccs3)cc(Cl)nc12 [Compound 248, (R)-2-amino-3-(5-chloro-3-ethynyl-7-thenylamino-1-oxa-4-aza-2-indenyl)-1-propanol]",7.00 to 11.00
10,"[2H]C([2H])([2H])OC[C@H](N)Cc1oc2c(NC([2H])([2H])c3cccs3)cc(Cl)nc2c1Br [Compound 249, 2-[(R)-2-amino-3-(^2H3)methoxypropyl]-3-bromo-5-chloro-7-{[(2-thienyl)(^2H2)methyl]amino}-1-oxa-4-azaindene]",7.00 to 11.00
11,"[2H]C([2H])([2H])OC[C@H](N)Cc1oc2c(NC([2H])([2H])c3cccs3)cc(Cl)nc2c1C#C [Compound 250, 2-[(R)-2-amino-3-(^2H3)methoxypropyl]-5-chloro-3-ethynyl-7-{[(2-thienyl)(^2H2)methyl]amino}-1-oxa-4-azaindene]",7.00 to 11.00
12,"[2H]C([2H])([2H])OC[C@H](N)Cc1oc2c(NCc3cccs3)cc(Cl)nc2c1Cl [Compound 264, 2-[(R)-2-amino-3-(^2H3)methoxypropyl]-3,5-dichloro-7-thenylamino-1-oxa-4-azaindene]",7.00 to 11.00
13,"[2H]C([2H])([2H])OC[C@H](N)Cc1oc2c(NCc3ccco3)cc(Cl)nc2c1Cl [Compound 265, 2-[(R)-2-amino-3-(^2H3)methoxypropyl]-3,5-dichloro-7-(furfurylamino)-1-oxa-4-azaindene]",7.00 to 11.00
14,"C#Cc1c(C[C@@H](N)CCOC)oc2c(NCc3cccs3)cc(Cl)nc12 [Compound 266, 2-[(S)-2-amino-4-methoxybutyl]-5-chloro-3-ethynyl-7-thenylamino-1-oxa-4-azaindene]",7.00 to 11.00
15,"[2H]C([2H])([2H])OCC[C@H](N)Cc1oc2c(NCc3cccs3)cc(Cl)nc2c1Br [Compound 267, 2-[(S)-2-amino-4-(^2H3)methoxybutyl]-3-bromo-5-chloro-7-thenylamino-1-oxa-4-azaindene]",6.30 to 7.00
16,"[2H][C@@](C)(N)Cc1oc2c(NCc3cccs3)cc(Cl)nc2c1C#C [Compound 268, 2-[(S)-2-amino(2-^2H)propyl]-5-chloro-3-ethynyl-7-thenylamino-1-oxa-4-azaindene]",7.00 to 11.00
17,"[2H]C([2H])([2H])C(N)Cc1oc2c(NCc3cccs3)cc(Cl)nc2c1C#C (centres unmarked) [Compound 269, 2-[2-amino(3,3,3-^2H3)propyl]-5-chloro-3-ethynyl-7-thenylamino-1-oxa-4-azaindene]",7.00 to 11.00
